Data from ChEMBL document CHEMBL5131564, “Discovery of Potent and Selective Receptor-Interacting Serine/Threonine Protein Kinase 2 (RIPK2) Inhibitors for the Treatment of Inflammatory Bowel Diseases (IBDs)” (J Med Chem, 2022).
Calls of active or inactive are those of the source. The rule behind the calls is not given here.

Tests used:
[1] = Inhibition of LPS/MDP-stimulated TNFalpha production in C57BL/6J mouse BMDM cells by ELISA relative to control; format: functional, cell-based
[2] = target: Receptor-interacting serine/threonine-protein kinase 2 (Homo sapiens, UniProt O43353); experiment: Inhibition of human RIPK2 incubated for 120 mins in presence of [gamma33P]ATP by scintillation counting based radiometry assay
[3] = target: T1, Receptor-interacting serine/threonine-protein kinase 1 (Homo sapiens) (UniProt Q13546); experiment: Inhibition of human RIPK1 assessed as active kinase incubated for 120 mins in presence of [gamma33P]ATP at 1000 nM by scintillation counting based radiometry assay relative to control; parameters: scale not given: the % may be the effect or the level left
T1 sequence (whole entry): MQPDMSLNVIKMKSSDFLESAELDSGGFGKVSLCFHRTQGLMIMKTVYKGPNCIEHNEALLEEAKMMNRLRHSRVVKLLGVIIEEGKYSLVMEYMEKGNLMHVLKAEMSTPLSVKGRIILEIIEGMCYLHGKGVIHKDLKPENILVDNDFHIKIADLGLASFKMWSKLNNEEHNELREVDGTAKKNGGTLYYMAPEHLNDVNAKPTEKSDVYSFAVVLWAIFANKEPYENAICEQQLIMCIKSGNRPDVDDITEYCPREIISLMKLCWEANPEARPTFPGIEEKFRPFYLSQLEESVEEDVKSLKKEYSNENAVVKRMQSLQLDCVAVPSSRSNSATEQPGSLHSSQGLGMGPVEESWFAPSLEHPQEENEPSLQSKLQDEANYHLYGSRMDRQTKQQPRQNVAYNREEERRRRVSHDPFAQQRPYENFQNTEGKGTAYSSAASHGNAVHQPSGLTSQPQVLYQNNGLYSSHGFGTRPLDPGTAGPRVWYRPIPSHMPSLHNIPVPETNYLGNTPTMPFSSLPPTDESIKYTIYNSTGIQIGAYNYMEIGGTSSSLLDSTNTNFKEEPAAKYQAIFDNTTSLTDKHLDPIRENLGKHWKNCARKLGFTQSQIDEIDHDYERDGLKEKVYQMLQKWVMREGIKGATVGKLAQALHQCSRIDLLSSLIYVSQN

[4] = Inhibition of MDP-stimulated TNFalpha production in mouse RAW264.7 cells at 100 nM incubated for 22 hrs by ELISA relative to control; format: functional
[5] = Metabolic stability in human liver microsomes assessed as half life at 1 uM by LC/MS/MS analysis; format: ADME, Microsome
[6] = Toxicity in rat H9c2 cells assessed as inhibitory rate at 10 uM relative to control; format: cell-based
[7] = target: Receptor-type tyrosine-protein kinase FLT3 (Homo sapiens) (UniProt P36888); experiment: Inhibition of human Flt3 using EAIYAAPFAKKK peptide substrate assessed as active kinase incubated for 40 mins in presence of [gamma33P]ATP at 1000 nM by scintillation counting based radiometry assay relative to control; parameters: scale not given: the % may be the effect or the level left
[8] = Toxicity in rat H9c2 cells assessed as inhibitory rate; format: cell-based
Mus musculus = experiment: Anti-inflammatory activity against DSS-induced acute ulcerative colitis C57BL/6 mouse model assessed as recovery of weight loss at 20 mg/kg, po for 6 consecutive days; format: functional, organism-based

Chain of Receptor-type tyrosine-protein kinase FLT3 (Homo sapiens) (P36888 whole entry): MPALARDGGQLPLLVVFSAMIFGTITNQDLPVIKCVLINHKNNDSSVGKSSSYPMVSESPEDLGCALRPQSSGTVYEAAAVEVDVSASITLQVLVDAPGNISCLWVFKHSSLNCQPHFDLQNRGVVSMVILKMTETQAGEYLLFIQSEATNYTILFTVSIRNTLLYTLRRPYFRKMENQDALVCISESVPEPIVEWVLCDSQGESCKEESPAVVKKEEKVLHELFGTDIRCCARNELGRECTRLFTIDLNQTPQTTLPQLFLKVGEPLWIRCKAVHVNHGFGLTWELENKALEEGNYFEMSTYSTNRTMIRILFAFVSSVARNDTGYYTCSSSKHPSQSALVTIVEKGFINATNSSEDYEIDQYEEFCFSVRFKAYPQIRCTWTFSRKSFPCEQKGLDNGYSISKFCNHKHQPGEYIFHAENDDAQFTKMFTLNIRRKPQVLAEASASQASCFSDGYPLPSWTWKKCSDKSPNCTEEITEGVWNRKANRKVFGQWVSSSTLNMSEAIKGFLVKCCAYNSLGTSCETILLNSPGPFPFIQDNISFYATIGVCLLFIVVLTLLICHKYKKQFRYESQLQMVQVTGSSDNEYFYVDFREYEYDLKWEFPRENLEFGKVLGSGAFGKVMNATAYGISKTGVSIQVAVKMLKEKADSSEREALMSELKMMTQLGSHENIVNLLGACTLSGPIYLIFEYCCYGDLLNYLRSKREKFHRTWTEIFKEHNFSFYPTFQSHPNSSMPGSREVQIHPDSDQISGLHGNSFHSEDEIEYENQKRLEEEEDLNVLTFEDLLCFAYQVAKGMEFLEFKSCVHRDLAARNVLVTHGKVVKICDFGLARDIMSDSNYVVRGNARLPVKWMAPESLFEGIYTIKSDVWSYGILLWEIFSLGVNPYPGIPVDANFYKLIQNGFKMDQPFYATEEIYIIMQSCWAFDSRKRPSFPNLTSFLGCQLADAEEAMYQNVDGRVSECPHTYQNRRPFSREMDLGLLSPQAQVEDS
Chain of Receptor-interacting serine/threonine-protein kinase 2 (O43353 whole entry): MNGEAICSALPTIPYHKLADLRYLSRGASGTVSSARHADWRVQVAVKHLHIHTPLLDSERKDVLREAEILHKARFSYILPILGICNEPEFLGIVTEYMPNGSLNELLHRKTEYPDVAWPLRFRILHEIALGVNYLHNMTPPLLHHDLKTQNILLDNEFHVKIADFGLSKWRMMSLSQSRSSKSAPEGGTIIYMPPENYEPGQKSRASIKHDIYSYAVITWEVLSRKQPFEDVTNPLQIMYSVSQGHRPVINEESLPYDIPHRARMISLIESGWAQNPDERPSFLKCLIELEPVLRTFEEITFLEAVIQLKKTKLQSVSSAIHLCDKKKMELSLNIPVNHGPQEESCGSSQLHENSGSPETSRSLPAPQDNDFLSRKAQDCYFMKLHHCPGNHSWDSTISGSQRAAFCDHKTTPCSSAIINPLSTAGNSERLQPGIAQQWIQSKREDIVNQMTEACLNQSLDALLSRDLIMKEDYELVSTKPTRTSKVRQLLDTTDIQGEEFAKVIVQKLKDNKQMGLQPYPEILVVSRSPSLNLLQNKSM

SMILES	IC50 [1]	IC50 [2]	Activity [3]	inhibition at 0.1 µM [4]	half-life at 1 µM [5]	inhibition at 10 µM [6]	Activity [7]	IC50 [8]	Activity (Mus musculus)
Nc1ncnc2c1c(-c1ccc(F)cc1)cn2[C@H]1CC[C@@H](N)CC1	1.7 nM	1.6 nM	125%	72%	> 120 min	35%			
Cc1ccc(-c2cn([C@H]3CC[C@@H](N)CC3)c3ncnc(N)c23)cc1Cl					28.2 min				
COc1ccc(-c2cn([C@H]3CC[C@@H](NC(=O)C(C)(C)C)CC3)c3ncnc(N)c23)cc1		15.6 nM	77%	45%			47%		
COc1ccc(-c2cn([C@H]3CC[C@@H](NC(=O)C(C)Cl)CC3)c3ncnc(N)c23)cc1 (stereo not given in full)		16.7 nM	82%	51%			63%		
Nc1ccc(-c2cn([C@H]3CC[C@@H](N)CC3)c3ncnc(N)c23)cc1F		4 nM	112%	72%	69.3 min	82%			
Cc1ccc(-c2cn([C@H]3CC[C@@H](N)CC3)c3ncnc(N)c23)cc1		2.4 nM	114%	99%	27.4 min	28%			
CCC(=O)N[C@H]1CC[C@@H](n2cc(-c3ccc(OC)cc3)c3c(N)ncnc32)CC1		10.8 nM	77%	53%			54%		
C=CCN[C@H]1CC[C@@H](n2cc(-c3ccc(OC)cc3)c3c(N)ncnc32)CC1		5.2 nM	85%	76%	6.3 min		58%		
Nc1ccc(-c2cn([C@H]3CC[C@@H](N)CC3)c3ncnc(N)c23)cc1			100%	22%					
Cc1ccc(-c2cn([C@H]3CC[C@@H](N)CC3)c3ncnc(N)c23)cc1F					26.9 min				
CCCC(=O)N[C@H]1CC[C@@H](n2cc(-c3ccc(OC)cc3)c3c(N)ncnc32)CC1		6 nM	72%	31%			49%		
Nc1ncnc2c1c(-c1ccoc1)cn2[C@H]1CC[C@@H](N)CC1			101%	13%					
Cc1ccc(-c2nn(C(C)(C)CNC(=O)c3ccncc3)c3ncnc(N)c23)cc1	57.7 nM	33.8 nM	95%	68%	33.8 min	50%		13100 nM	
Nc1ncnc2c1c(-c1cc(F)cc(F)c1)cn2[C@H]1CC[C@@H](N)CC1			114%	56%					
CCc1ccc(-c2cn([C@H]3CC[C@@H](N)CC3)c3ncnc(N)c23)cc1			97%	46%					
CCOc1ccc(-c2cn([C@H]3CC[C@@H](N)CC3)c3ncnc(N)c23)cc1			98%	-15%					
Nc1ncnc2c1c(-c1cccc(Cl)c1)cn2[C@H]1CC[C@@H](N)CC1		5.9 nM	116%	84%	> 120 min	98%			
Nc1ncnc2c1c(-c1cccc(F)c1)cn2[C@H]1CC[C@@H](N)CC1		6.4 nM	115%	71%	107 min	50%			
COc1ccc(-c2cn([C@H]3CC[C@@H](NC(=O)c4cc(OC)c(OC)c(OC)c4)CC3)c3ncnc(N)c23)cc1		3.9 nM	87%	49%			85%		

SMILES	IC50 [1]	IC50 [2]	Activity [3]	inhibition at 0.1 µM [4]	half-life at 1 µM [5]	inhibition at 10 µM [6]	Activity [7]	IC50 [8]	Activity (Mus musculus)
CC(C)c1ccc(-c2cn([C@H]3CC[C@@H](N)CC3)c3ncnc(N)c23)cc1			95%	-52%					
Nc1cccc(-c2cn([C@H]3CC[C@@H](N)CC3)c3ncnc(N)c23)c1			98%	16%					
Cc1ccc(-c2cn([C@H]3CC[C@@H](N)CC3)c3ncnc(N)c23)cc1C					22.4 min				
Cc1ccccc1-c1cn([C@H]2CC[C@@H](N)CC2)c2ncnc(N)c12		7.9 nM	99%	88%	> 120 min	54%			
COc1ccc(-c2cn([C@H]3CC[C@@H](NC(C)=O)CC3)c3ncnc(N)c23)cc1		11.7 nM	80%	27%			57%		
COc1ccc(-c2cn([C@H]3CC[C@@H](NCc4cccc(OC(F)(F)F)c4)CC3)c3ncnc(N)c23)cc1		18.5 nM	105%	54%			86%		
Nc1ccccc1-c1cn([C@H]2CC[C@@H](N)CC2)c2ncnc(N)c12			112%	-35%					
COc1ccc(-c2cn([C@H]3CC[C@@H](NCC#N)CC3)c3ncnc(N)c23)cc1		6.7 nM	99%	62%	2.7 min		46%		
CC(C)Cc1ccc(-c2cn([C@H]3CC[C@@H](N)CC3)c3ncnc(N)c23)cc1			117%	-23%					
Nc1ncnc2c1c(-c1ccc3c(c1)OCO3)cn2[C@H]1CC[C@@H](N)CC1		0.8 nM	119%	68%	> 120 min	64%			
Cc1cccc(-c2cn([C@H]3CC[C@@H](N)CC3)c3ncnc(N)c23)c1		10.7 nM	105%	83%	23.7 min	18%			
Cc1ccc(-c2cn([C@H]3CC[C@@H](N)CC3)c3ncnc(N)c23)c(Cl)c1	2.3 nM				> 120 min			11400 nM	Active
CC(C)(C)c1ccc(-c2cn([C@H]3CC[C@@H](N)CC3)c3ncnc(N)c23)cc1			93%	-40%					
COc1ccc(-c2cn([C@H]3CC[C@@H](NS(=O)(=O)C(F)(F)F)CC3)c3ncnc(N)c23)cc1		21.1 nM	73%	-2%			55%		
COc1ccc(-c2cn([C@H]3CC[C@@H](NCc4ccccc4)CC3)c3ncnc(N)c23)cc1		3 nM	94%	76%	1.6 min		70%		
Nc1ncnc2c1c(-c1ccc(O)cc1)cn2[C@H]1CC[C@@H](N)CC1		6.3 nM	96%	75%	133 min	61%			
Nc1ncnc2c1c(-c1ccccc1)cn2[C@H]1CC[C@@H](N)CC1		9 nM	104%	70%	148 min	44%			
Nc1ncnc2c1c(-c1ccsc1)cn2[C@H]1CC[C@@H](N)CC1			99%	16%					
COc1ccc(-c2cn([C@H]3CC[C@@H](N)CC3)c3ncnc(N)c23)cc1	3.8 nM	4.2 nM	97%	69%	108 min		68%		
